Patent publication US20070149519A1, “Benzimidazol substituted thiopene derivatives with activity on ikk3” (priority 2004, published 2007)

Biological target: T1, Recombinant human IKK3 (Homo sapiens, UniProt Q14164)
T1 construct: FLAG; made in house
T1 sequence (Q14164 1-716): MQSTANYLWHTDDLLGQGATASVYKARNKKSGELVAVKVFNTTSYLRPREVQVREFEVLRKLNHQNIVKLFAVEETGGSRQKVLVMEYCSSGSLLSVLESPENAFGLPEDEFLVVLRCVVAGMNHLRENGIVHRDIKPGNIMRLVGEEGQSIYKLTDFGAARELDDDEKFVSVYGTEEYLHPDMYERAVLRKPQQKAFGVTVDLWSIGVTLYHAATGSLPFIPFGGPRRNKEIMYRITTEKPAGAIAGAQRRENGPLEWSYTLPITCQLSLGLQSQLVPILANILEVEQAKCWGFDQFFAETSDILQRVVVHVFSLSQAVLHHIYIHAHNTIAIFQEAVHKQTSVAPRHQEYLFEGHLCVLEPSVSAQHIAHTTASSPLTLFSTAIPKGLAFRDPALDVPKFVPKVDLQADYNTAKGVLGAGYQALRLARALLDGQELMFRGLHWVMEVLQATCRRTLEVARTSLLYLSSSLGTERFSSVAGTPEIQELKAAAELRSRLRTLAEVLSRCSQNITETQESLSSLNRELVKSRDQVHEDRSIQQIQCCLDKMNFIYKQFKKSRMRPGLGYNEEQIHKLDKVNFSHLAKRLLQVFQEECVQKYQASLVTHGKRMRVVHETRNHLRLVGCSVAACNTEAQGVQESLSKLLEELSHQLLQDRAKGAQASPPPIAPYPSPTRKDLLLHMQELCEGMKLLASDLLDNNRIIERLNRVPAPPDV
Assay: IKK3 TR-FRET kinase assay
Assay type: biochemical
Settings: IKK3 15 nM, GST-IκBα 25 nM, ATP 2 μM, 15 minutes at room temperature
Description: Recombinant human IKK3 was expressed in baculovirus as a FLAG tagged fusion protein, and its activity was assessed using a time-resolved fluorescence resonance energy transfer (TR-FRET) assay. Briefly, IKK3 (15 nM final) diluted in assay buffer (50 mM HEPES, 10 mM MgCl2, 1 mM CHAPS pH 7.4 with 1 mM DTT and 0.01% w/v BSA) was added to wells containing various concentrations of compound or DMSO vehicle (3% final). The reaction was initiated by the addition of GST-IκBα substrate (25 nM final)/ATP (2 μM final), in a total volume of 30 μl. The reaction was incubated for 15 minutes at room temperature, then terminated by the addition of 15 μl of 50 mM EDTA. Detection reagent (15 μl) in buffer (100 mM HEPES pH 7.4, 150 mM NaCl and 0.1% w/v BSA) containing antiphosphoserine-IκBα-32/36 monoclonal antibody 12C2 (Cell Signalling Technology, Massachusetts, USA) labelled with W-1024 europium chelate (Wallac OY, Turku, Finland), and an APC-labelled anti-GST antibody (Prozyme, San Leandro, Calif., USA) was added and the reaction was further incubated for 45 minutes at room temperature. The degree of phosphorylation of GST-IκBα was measured using a Packard Discovery plate reader (Perkin-Elmer Life Sciences, Pangbourne, UK) as a ratio of specific 665 nm energy transfer signal to reference europium 620 nm signal.

## COc1cc2ncn(-c3cc(OCc4ccc(CO)cc4)c(C#N)s3)c2cc1OC [Example 1, 5-[5,6-Bis(methyloxy)-1H-benzimidazol-1-yl]-3-({[4-(hydroxymethyl)phenyl]methyl}oxy)-2-thiophenecarbonitrile]
  IC50: < 1 µM

## COc1cc2ncn(-c3cc(O[C@H](C)c4ccccc4Cl)c(C#N)s3)c2cc1OC [Example 2, 5-[5,6-Bis(methyloxy)-1H-benzimidazol-1-yl]-3-{[(1R)-1-(2-chlorophenyl)ethyl]oxy}-2-thiophenecarbonitrile]
  IC50: 1 to 10 µM

## Cc1ccccc1COc1cc(-n2cnc3ccccc32)sc1C#N [Example 3, 5-(1H-Benzimidazol-1-yl)-3-{[(2-methylphenyl)methyl]oxy}-2-thiophenecarbonitrile]
  IC50: < 1 µM

## N#Cc1sc(-n2cnc3ccccc32)cc1OCc1ccccc1 [Example 4, 5-(1H-Benzimidazol-1-yl)-3-[(phenylmethyl)oxy]-2-thiophenecarbonitrile]
  IC50: 1 to 10 µM

## COc1cc2ncn(-c3cc(OCc4ccccc4C(F)(F)F)c(C#N)s3)c2cc1OC [Example 5, 5-[5,6-Bis(methyloxy)-1H-benzimidazol-1-yl]-3-({[2-(trifluoromethyl)phenyl]methyl}oxy)-2-thiophenecarbonitrile]
  IC50: < 1 µM

## COc1cc2ncn(-c3cc(OCc4ccc5nnn(C)c5c4)c(C#N)s3)c2cc1OC [Example 6, 5-[5,6-bis(methyloxy)-1H-benzimidazol-1-yl]-3-{[(1-methyl-1H-1,2,3-benzotriazol-6-yl)methyl]oxy}-2-thiophenecarbonitrile]
  IC50: < 1 µM

## COc1cc2c(cc1OCCN1CCOCC1)ncn2-c1cc(OCc2ccccc2C(F)(F)F)c(C#N)s1 [Example 7, 5-(6-(Methyloxy)-5-([2-(4-morpholinyl)ethyl]oxy)-1H-benzimidazol-1-yl)-3-({[2-(trifluoromethyl)phenyl]methyl}oxy)-2-thiophene carbonitrile]
  IC50: < 1 µM

## COc1cc2ncn(-c3cc(OCc4cc(F)ccc4F)c(C#N)s3)c2cc1OC [Example 8, 5-[5,6-Bis(methyloxy)-1H-benzimidazol-1-yl]-3-{[(2,5-difluorophenyl)methyl]oxy}-2-thiophenecarbonitrile]
  IC50: < 1 µM

## COc1cc2ncn(-c3cc(OCc4ccccc4S(C)(=O)=O)c(C#N)s3)c2cc1OC [Example 9, 5-[5,6-Bis(methyloxy)-1H-benzimidazol-1-yl]-3-({[2-(methylsulfonyl)phenyl]methyl}oxy)-2-thiophenecarbonitrile]
  IC50: < 1 µM

## N#Cc1sc(-n2cnc3cc(Cl)ccc32)cc1OCc1ccccc1 [Example 10, 5-(5-Chloro-1H-benzimidazol-1-yl)-3-[(phenylmethyl)oxy]-2-thiophenecarbonitrile]
  IC50: 1 to 10 µM

## COc1cc2ncn(-c3cc(OCc4c(F)cccc4F)c(C#N)s3)c2cc1OC [Example 11, 5-[5,6-bis(Methyloxy)-1H-benzimidazol-1-yl]-3-{[(2,6-difluorophenyl)methyl]oxy}-2-thiophenecarbonitrile]
  IC50: < 1 µM

## COc1cc2c(cc1OCCCO)ncn2-c1cc(OCc2ccccc2C(F)(F)F)c(C#N)s1 [Example 12, 5-[5-[(3-Hvdroxypropyl)oxy]-6-(methyloxy)-1H-benzimidazol-1-yl]-3-({[2-(trifluoromethyl)phenyl]methyl}oxy)-2-thiophenecarbonitrile]
  IC50: < 1 µM

## COc1cc2ncn(-c3cc(OCc4ccncc4Br)c(C#N)s3)c2cc1OC [Example 13, 5-[5,6-Bis(methyloxy)-1H-benzimidazol-1-yl]-3-{[(3-bromo-4-pyridinyl)methyl]oxy}-2-thiophenecarbonitrile]
  IC50: 1 to 10 µM

## COc1cc2ncn(-c3cc(OCC4CCCCC4)c(C#N)s3)c2cc1OC [Example 14, 5-[5,6-Bis(methyloxy)-1H-benzimidazol-1-yl]-3-[(cyclohexylmethyl)oxy]-2-thiophenecarbonitrile]
  IC50: < 1 µM

## N#Cc1sc(-n2cnc3cc(C(=O)NCCN4CCOCC4)ccc32)cc1OCc1ccccc1C(F)(F)F [Example 15, 1-[5-cyano-4-({[2-(trifluoromethyl)phenyl]methyl}oxy)-2-thienyl]-N-[2-(4-morpholinyl)ethyl]-1H-benzimidazole-5-carboxamide]
  IC50: < 1 µM

## COc1cc2ncn(-c3cc(O[C@H](C)c4ccccc4C(F)(F)F)c(C#N)s3)c2cc1OC [Example 16, 5-[5,6-Bis(methyloxy)-1H-benzimidazol-1-yl]-3-({(1 R)-1-[2-(trifluoromethyl)phenyl]ethyl}oxy)-2-thiophenecarbonitrile]
  IC50: 1 to 10 µM

## COc1cc2ncn(-c3cc(OCCc4ccccc4)c(C#N)s3)c2cc1OC [Example 17, 5-[5,6-bis(methyloxy)-1H-benzimidazol-1-yl]-3-[(2-phenylethyl)oxy}-2-thiophenecarbonitrile]
  IC50: < 1 µM

## COc1cc2ncn(-c3cc(OCc4ccccc4OC(F)(F)F)c(C#N)s3)c2cc1OC [Example 18, 5-[5,6-bis(methyloxy)-1H-benzimidazol-1-yl]-3-[({2-[(trifluoromethyl)oxy]phenyl}methyl)oxy]-2-thiophenecarbonitrile]
  IC50: < 1 µM

## COc1ccccc1COc1cc(-n2cnc3cc(OC)c(OC)cc32)sc1C#N [Example 19, 5-[5,6-bis(methyloxy)-1H-benzimidazol-1-yl]-3-({[2-(methyloxy)phenyl]methyl}oxy)-2-thiophenecarbonitrile]
  IC50: 1 to 10 µM

## COc1cc2ncn(-c3cc(OCCN4CCOCC4)c(C#N)s3)c2cc1OC [Example 20, 5-[5,6-bis(methyloxy)-1H-benzimidazol-1-yl]-3-{[2-(4-morpholinyl)ethyl]oxy}-2-thiophenecarbonitrile]
  IC50: 1 to 10 µM

## COc1cc2ncn(-c3cc(OCCN4CCCC4=O)c(C#N)s3)c2cc1OC [Example 21, 5-[5,6-bis(methyloxy)-1H-benzimidazol-1-yl]-3-{[2-(2-oxo-1-pyrrolidinyl)ethyl]oxy}-2-thiophenecarbonitrile]
  IC50: < 1 µM

## COc1cc2ncn(-c3cc(OCC4CCCO4)c(C#N)s3)c2cc1OC (stereo not shown) [Example 22, 5-[5,6-bis(methyloxy)-1H-benzimidazol-1-yl]-3-[(tetrahydro-2-furanylmethyl)oxy]-2-thiophenecarbonitrile]
  IC50: 1 to 10 µM

## COc1cc2ncn(-c3cc(OCC4CCCCO4)c(C#N)s3)c2cc1OC (stereo not shown) [Example 23, 5-[5,6-bis(methyloxy)-1H-benzimidazol-1-yl]-3-[(tetrahydro-2 H-pyran-2-ylmethyl)oxy]-2-thiophenecarbonitrile]
  IC50: < 1 µM

## COc1cc2ncn(-c3cc(OCCOc4ccccc4)c(C#N)s3)c2cc1OC [Example 24, 5-[5,6-bis(methyloxy)-1H-benzimidazol-1-yl]-3-{[2-(phenyloxy)ethyl]oxy}-2-thiophenecarbonitrile]
  IC50: < 1 µM

## CCC[C@H](Oc1cc(-n2cnc3cc(OC)c(OC)cc32)sc1C#N)c1ccccc1Cl [Example 25, 5-[5,6-bis(methyloxy)-1H-benzimidazol-1-yl]-3-{[(1S)-1-(2-chlorophenyl)butyl]oxy}-2-thiophenecarbonitrile]
  IC50: < 1 µM

## COc1cc2ncn(-c3cc(OCc4ccsc4)c(C#N)s3)c2cc1OC [Example 26, 5-[5,6-bis(methyloxy)-1H-benzimidazol-1-yl]-3-[(3-thienylmethyl)oxy]-2-thiophenecarbonitrile]
  IC50: < 1 µM

## COc1cc2ncn(-c3cc(OCc4cccs4)c(C#N)s3)c2cc1OC [Example 27, 5-[5,6-bis(methyloxy)-1H-benzimidazol-1-yl]-3-[(2-thienylmethyl)oxy]-2-thiophenecarbonitrile]
  IC50: < 1 µM

## CC[C@@H](C)Oc1cc(-n2cnc3cc(OC)c(OC)cc32)sc1C#N [Example 28, 5-[5,6-bis(methyloxy)-1H-benzimidazol-1-yl]-3-{[(1 R)-1-methylpropyl]oxy}-2-thiophenecarbonitrile]
  IC50: 1 to 10 µM
